According to US20250332378A1, “CATHETERS” (ConvaTec Limited, priority 2023, published 2025):

Columns and labels:
Format in all cases: cell-based
S. aureus = test: Rate of kill assessment against repeat inoculation, catheter submerged in medium; details: within 5 seconds following inoculation; repeat inoculation up to 24 hours
Protocol: (§1) To assess the sterilisation potential of the medium of the invention, a microbiology assessment was conducted which consisted of rate of kill assessments against repeat inoculation of E. coli and E. faecalis. These organisms were selected as they are commonly identified in catheter associated urinary tract infections. The selection also covers both gram-positive and gram-negative species to test the broad spectrum antimicrobial performance of the medium of the invention.
(§2) Intermittent urinary catheters, as used for Example 1, were provided and submerged in an aqueous medium comprising sodium hypochlorite and sodium chloride. The media comprising the catheters were respectively inoculated with the two microorganisms.
(§3) A direct inoculation method was applied against each microorganism. The test organisms were reinoculated following 1, 2, 3, 4, 5, 6, and 24 hours. Following each inoculation, a sample was taken after 5 seconds, 1, 5, 10 and 15 minutes to evaluate the rate of kill.
(§4) A microbiology assessment was performed using a medium of the invention comprising hypochlorous acid in an analogous manner to that performed for Example 2. However, for this test, following each inoculation, a sample was only taken after 5 seconds to evaluate the rate of kill. Further, in addition to the previous microorganisms tested, a further gram-positive organism, S. aureus, was tested.

E. coli = test: as above; details: for time up to which rapid kill was observed: within 5 seconds following inoculation, repeat inoculation up to 24 hours; for time up to which highly effective kill was observed: all time periods post-inoculation
Protocol: as §1, §2, §3, §4
(§5) To evaluate the antimicrobial activity further, the test was repeated using the same frequency of inoculation, but with sampling performed up to 5 minutes after reinoculation at 24 hours. Even for the most challenging organism, E. faecalis, a reduction in the microbial colony forming unit (CFU) counts of over 3 orders of magnitude was observed after 5 minutes of inoculation.
(§6) A microbiology assessment was performed using the media of the invention comprising hypochlorous acid in an analogous manner to that performed for Example 2. However, for this test, following each inoculation, samples were taken after 5 seconds, 30 seconds, 1, 2, and 5 minutes to evaluate the rate of kill.

E. faecalis = test: as above; details: for reduction in the microbial colony forming unit (CFU) counts: reinoculation at 24 hours; for time up to which rapid kill was observed: within 5 seconds following inoculation, repeat inoculation up to 24 hours
Protocol: as §1, §2, §3, §4, §5, §6

E. coli NCIMB 14067 = test: Antimicrobial efficacy at very low concentrations, total viable counts; details: for numbers of bacteria: after 30 seconds, approximately 1×10^5 CFU/mL inoculated
Protocol: The antimicrobial efficacy of hypochlorous acid was tested at even lower concentrations (10, 25, and 50 ppm) against the challenging organism E. coli NCIMB 14067.
The representative colonies of E. coli NCIMB 14067 were dispersed in maximum recovery diluent (MRD) to obtain an optical density (OD540 nm) equivalent to approximately 1×10^6 CFU/mL. A quantitative plate count was performed on this suspension to determine the total number of viable organisms inoculated. A new suspension was prepared for each concentration tested.
A 1000 ppm hypochlorous acid solution was diluted in sterile deionised water to provide the respective 10, 25 and 50 ppm hypochlorous acid solutions.
The hypochlorous acid samples were aliquoted into 9 mL volumes and 1 mL of the challenge organism suspension was added and mixed (the final number of bacteria present is now approximately 1×10^5 CFU/mL). Following 5, 30 seconds, 1, 2, and 5 minutes, 100 μL volumes were sampled and transferred to 0.9 mL and 9.9 mL of Dey-Engley Neutralising Broth (DENB) (to provide a 1:10 and 1:100 dilution respectively), and total viable counts were performed to establish the amount present. The plates were left to dry before being inverted and incubated at 35±3° C. for at least 48 hours. A negative control was also tested whereby 1 mL of the challenge organism suspension was added to 9 mL of MRD and tested as previously described. Following the incubation period, the number of CFUs were counted on the most appropriate dilution for each sample i.e. between 25-250 CFU/plate.

[1] = tested on: Escherichia coli NCIMB 14067; test: In vitro direct inoculation method, comparative test
Protocol: (§7) An in vitro direct inoculation method was used to assess the antimicrobial activity of sulfanilamide in an intermittent urinary catheter scenario against […] Escherichia coli NCIMB 14067 and […] Enterococcus faecalis NCTC 12201; two microorganisms associated with urinary tract infections. Sulfanilamide concentrations of 0.1% and 0.01% were tested and bacterial levels monitored over a period of 5 minutes.
(§8) Representative colonies of the challenge microorganisms, from an 18-24 hour challenge culture plate, were dispersed in MRD to obtain an optical density (OD540 nm) equivalent to approximately 1×10^8 CFU/mL. This was diluted to obtain a working concentration of 1×10^6 CFU/mL. A quantitative count was performed to confirm the inoculum level.
(§9) The challenge organism was prepared in MRD to a concentration of approximately 1×10^6 CFU/mL. This suspension was added in a 1 mL volume to 9 mL of sample (n=3 per sample, n=2 per control) in a sterile 30 mL universal and pipetted up and down to mix. Following each testing period, 5 seconds, 30 seconds, 1 minute, 2 minutes and 5 minutes, 100 μL of the test solution was transferred to 0.9 mL and 9.9 mL volumes of DENB (1:10 and 1:100 dilutions respectively). The most appropriate dilutions were inoculated (100 μL) onto duplicate pre-dried (tryptone soy agar) TSA plates and the inoculum spread using separate sterile L-shaped spreaders (for 10^−1 and 10^−2 dilutions, 0.5 mL were placed onto duplicate plates). The TSA plates were allowed to dry before being inverted and incubated at 35±3° C. for at least 48 hours. Following the incubation period, the number of bacterial colonies were counted on the most appropriate dilution for each dressing type i.e. between 25-250 CFU/plate.
(§10) The samples tested were: 0.1% sulfanilamide in sterile deionised water (SDW); 0.01% sulfanilamide in SDW; 100 ppm hypochlorous acid in SDW; and a SDW control.

[2] = tested on: Enterococcus faecalis NCTC 12201; test: as above
Protocol: as §7, §8, §9, §10

[3] = 100 ppm in SDW, within 5 seconds and for the remaining testing period (5 minutes)
[4] = 675 ppm, 30 seconds after sampling
[5] = each concentration tested (250, 675, 1000, 2000 ppm), after 5 minutes of sampling
[6] = 0.1% and 0.01% in SDW, any timepoint, 5 seconds to 5 minutes

[O][Cl+][O-] [chlorine dioxide]
time up to which rapid kill was observed (S. aureus): up to 6 hours | time up to which rapid kill was observed (E. coli): up to 24 hours | reduction in the microbial colony forming unit (CFU) counts (E. faecalis; after around 30 seconds of inoculation): 4 orders of magnitude | time up to which rapid kill was observed (E. faecalis): up to 6 hours

OCl [hypochlorous acid]
time up to which rapid kill was observed (S. aureus): up to 6 hours | numbers of bacteria (E. coli NCIMB 14067; 25 ppm): undetectable numbers | numbers of bacteria (E. coli NCIMB 14067; 50 ppm): undetectable numbers | CFU/mL of negative control (MRD) larger than for the samples by (E. coli NCIMB 14067; all concentrations (10, 25, 50 ppm) and time points tested): over 4 orders of magnitude | numbers of challenge organism [1, 3]: undetectable numbers | numbers of challenge organism [2, 3]: undetectable numbers | time up to which highly effective kill was observed (E. coli; 250 ppm): up to 5 hours | time up to which highly effective kill was observed (E. coli; 675 ppm and above): up to 24 hours | time up to which effective kill was observed (E. coli; [4]): up to 24 hours | time up to which effective kill was found (E. coli; [5]): up to 24 hours | time up to which rapid kill was observed (E. coli): up to 24 hours | time up to which highly effective kill was observed (E. faecalis; 250 ppm, 30 seconds post-inoculation): Up to 5 hours | time up to which highly effective kill was observed (E. faecalis; 250 ppm, all time periods post-inoculation): up to 4 hours | time up to which effective kill was observed (E. faecalis; [4]): up to 24 hours | time up to which highly effective kill was observed (E. faecalis; 675 ppm, all time periods post-inoculation): up to 6 hours | time up to which highly effective kill was observed (E. faecalis; 675 ppm, from 30 seconds post-inoculation): up to 24 hours | time up to which highly effective kill was observed (E. faecalis; 1000 ppm, all time periods post-inoculation): up to 24 hours | reduction in the microbial colony forming unit (CFU) counts (E. faecalis; after 5 minutes of inoculation): over 3 orders of magnitude | time up to which effective kill was found (E. faecalis; [5]): up to 24 hours | time up to which rapid kill was observed (E. faecalis): up to 6 hours

Nc1ccc(S(N)(=O)=O)cc1 [sulfanilamide, reference compound]
change in challenge organism numbers compared to the control [1, 6]: no decrease | change in challenge organism numbers compared to the control [2, 6]: no decrease
